Experimental findings from DBAASP are described below.

Molecules are shown by their SMILES. ≈ marks a conversion by molar mass, not a printed value. A value given as a limit tells only on which side of the number the result lay.

Test systems include Escherichia coli TOP 10; Escherichia coli W3110; Bacillus subtilis 168.
Holding throughout (experiment): ≥ marks a high value that may be exact or a test limit, other limits are often not marked, values filed in µg/mL are converted to µM
In assay [1] the test system is Bacillus subtilis CMCC 63501.
Assay [2] concerns Escherichia coli CICC 10670.
For assay [3], the system named is Listeria monocytogenes ATCC 19115.
The test system of assay [4] is Salmonella enterica subsp. enterica serovar Typhimurium ATCC 14028.
Assay [5] relates to Staphylococcus aureus ATCC 6538.
The test system of assay [6] is Pseudomonas aeruginosa 15159.
For assay [7], the system named is Pseudomonas aeruginosa ATCC 27853.
Assay [8] relates to Staphylococcus aureus 2844.
Assay [9] deals with Staphylococcus aureus ATCC 29213.
For assay [10], the system named is Staphylococcus aureus FDA 486.
For assay [11], the system named is Enterococcus faecalis ATCC 51299.
For assay [12], the system named is Enterococcus faecium ATCC 19434.
In assay [13] the test system is Escherichia coli ATCC 35218.
The test system of assay [14] is Klebsiella pneumoniae ATCC 49472.
Assay [15] deals with Klebsiella pneumoniae ATCC BAA-2814.
Assay [16] concerns Staphylococcus aureus ATCC 12600.
In assay [17] the test system is Staphylococcus aureus ATCC BAA-2312.
Assay [18] relates to Klebsiella pneumoniae ATCC BAA-1705.
For assay [19], the system named is Staphylococcus aureus SH1000.
Assay [20] deals with Escherichia coli DH5alpha.
The subject of assay [21] is Mycobacterium tuberculosis H37Ra.
Assay [22] has as its system Pseudomonas aeruginosa PAO1.
The subject of assay [23] is Staphylococcus aureus NRS 72.
Assay [24] has as its system Staphylococcus aureus USA 300.
Assay [25] concerns Candida albicans FRR 5580.
The test system of assay [26] is Escherichia coli ATCC 25922.
Assay [27] relates to Pseudomonas aeruginosa ATCC 9027.
The subject of assay [28] is Staphylococcus aureus ATCC 25923.
Assay [29] has as its system Acinetobacter baumannii ATCC BAA-747.
In assay [30] the test system is Enterococcus faecium ATCC 700221.
Assay [31] relates to Klebsiella pneumoniae ATCC 700603.
Assay [32] relates to Salmonella enterica ATCC 6539.
Assay [33] relates to Staphylococcus aureus ATCC 43300.

For the compound `CC(C)C[C@H](NC(=O)[C@H](Cc1ccccc1)NC(=O)[C@@H](NC(=O)[C@H](CC(C)C)NC(=O)[C@H](CC(=O)O)NC(=O)[C@H](CCCCN)NC(=O)[C@H](C)NC(=O)[C@@H](NC(=O)[C@H](CC(C)C)NC(=O)[C@@H](NC(=O)[C@H](C)N)[C@@H](C)O)[C@@H](C)O)[C@@H](C)O)C(=O)N[C@@H](CCC(N)=O)C(=O)N[C@@H](CC(=O)O)C(=O)N[C@@H](Cc1ccc(O)cc1)C(=O)N[C@@H](CCCCN)C(=O)N[C@@H](CCCCN)C(=O)N[C@H](C(=O)N[C@@H](CCCCN)C(=O)N[C@@H](CCCCN)C(=O)N[C@@H](CCCN=C(N)N)C(=O)N[C@H](C(=O)N[C@@H](CCCCN)C(=O)O)C(C)C)[C@@H](C)O` [ATLTAKDLTFLQDYKKTKKRVK], the minimum inhibitory concentration (MIC) (commonly the least concentration at which growth counts as inhibited) in assay [1] was 10 µM (≈ 26 µg/mL); in assay [2], at least 40 µM; in [3], 20 µM (≈ 51.9 µg/mL); in assay [4], 20 µM (≈ 51.9 µg/mL); in [5], 20 µM (≈ 51.9 µg/mL).
For the compound `CC[C@H](C)[C@H](NC(=O)[C@H](CCCN=C(N)N)NC(=O)[C@H](CCC(N)=O)NC(=O)[C@@H](NC(=O)[C@@H](NC(=O)[C@H](CCCN=C(N)N)NC(=O)[C@H](CCCCN)NC(=O)[C@H](Cc1ccccc1)NC(=O)[C@H](CCC(=O)O)NC(C)=O)[C@@H](C)CC)C(C)C)C(=O)N[C@@H](CCCCN)C(=O)N[C@@H](CC(=O)O)C(=O)N[C@@H](Cc1ccccc1)C(=O)N[C@@H](CC(C)C)C(=O)N[C@@H](CCCN=C(N)N)C(=O)N[C@@H](CC(N)=O)C(=O)N[C@@H](CC(C)C)C(=O)N[C@H](C(N)=O)C(C)C` [EFKRIVQRIKDFLRNLV], the MIC in assay [6] was 10 µM (≈ 22.2 µg/mL); in assay [7] it was 10 µM (≈ 22.2 µg/mL); in assay [8] it was 5 µM (≈ 11.1 µg/mL); in assay [9], 10 µM (≈ 22.2 µg/mL); in [10], 5 µM (≈ 11.1 µg/mL).
Take `CC[C@H](C)[C@H](NC(=O)[C@H](CCC(N)=O)NC(=O)[C@H](CO)NC(=O)[C@H](C)NC(=O)[C@H](CC(C)C)NC(=O)[C@H](Cc1cnc[nH]1)NC(=O)[C@@H](NC(=O)[C@H](CC(C)C)NC(=O)[C@H](CC(C)C)NC(=O)[C@H](CCC(=O)O)NC(=O)[C@H](CCCCN)NC(=O)CNC(=O)[C@H](C)NC(=O)CNC(=O)[C@H](CCCCN)NC(=O)[C@H](Cc1ccccc1)NC(=O)[C@H](Cc1ccccc1)NC(=O)[C@H](CC(=O)O)NC(=O)[C@H](CC(C)C)NC(=O)[C@H](CC(C)C)NC(=O)CN)[C@@H](C)O)C(N)=O` [GLLDFFKGAGKELLTHLASQI]: the minimum inhibitory concentration (MIC) in assay [11] was at least 250 µM; in assay [12], at least 250 µM; in [13], at least 62.5 µM; in assay [14] it was at least 125 µM; in assay [15], at least 125 µM; in assay [7], over 125 µM. For the same compound, the results for the MIC in [4], in assay [16] and in [17] were 125 µM (≈ 282 µg/mL), at least 250 µM and at least 250 µM, respectively.
In the assay with Escherichia coli TOP 10, `CC[C@H](C)[C@H](N)C(=O)N[C@@H](CC(C)C)C(=O)N1CCC[C@H]1C(=O)N[C@@H](CC(C)C)C(=O)N[C@@H](CC(C)C)C(=O)N[C@@H](CCCCN)C(=O)N[C@@H](CCCCN)C(=O)N[C@@H](Cc1ccccc1)C(=O)NCC(=O)N[C@@H](CCCCN)C(=O)N[C@@H](CCCCN)C(=O)N[C@@H](Cc1ccccc1)C(=O)NCC(=O)N[C@@H](CCCCN)C(=O)N[C@@H](CCCCN)C(=O)N[C@H](C(=O)N[C@@H](Cc1c[nH]c2ccccc12)C(=O)N[C@@H](CCCCN)C(=O)N[C@@H](C)C(=O)N[C@@H](CC(C)C)C(N)=O)C(C)C` [ILPLLKKFGKKFGKKVWKAL] gave an MIC of 10.7 µM (≈ 25 µg/mL).
As for `CC[C@H](C)[C@H](N)C(=O)N[C@@H](CC(C)C)C(=O)N[C@@H](Cc1c[nH]c2ccccc12)C(=O)N[C@@H](C)C(=O)N[C@@H](CS)C(=O)N[C@@H](Cc1c[nH]c2ccccc12)C(=O)NCC(=O)N[C@@H](CC(C)C)C(=O)N[C@@H](CCCCN)C(=O)N[C@@H](CC(C)C)C(=O)N[C@@H](CC(C)C)C(=O)N[C@@H](CCCN=C(N)N)C(=O)N[C@@H](Cc1ccc(O)cc1)C(=O)N[C@@H](CCCN=C(N)N)C(=O)N[C@@H](CCCN=C(N)N)C(=O)N[C@H](C(=O)N[C@@H](Cc1ccc(O)cc1)C(=O)O)[C@@H](C)CC` [ILWACWGLKLLRYRRIY], the minimum inhibitory concentration (MIC) was 16 µM (≈ 35.6 µg/mL) in the assay on Escherichia coli W3110 and at least 128 µM in [18].
For the compound `CC[C@H](C)[C@H](NC(=O)[C@H](CC(=O)O)NC(=O)[C@H](Cc1ccccc1)NC(=O)[C@H](CC(C)C)NC(=O)[C@@H](N)CCCCN)C(=O)N[C@H](C(=O)N[C@@H](CCCCN)C(=O)N[C@@H](CCCCN)C(=O)N[C@H](C(=O)N[C@H](C(=O)NCC(=O)N[C@@H](C)C(=O)N[C@@H](CC(C)C)C(=O)NCC(N)=O)C(C)C)C(C)C)C(C)C` [KLFDIVKKVVGALG], the minimal inhibitory concentration (MIC) in assay [19] is at least 100 µM.
On to `CC(C)C[C@H](NC(=O)[C@H](Cc1c[nH]c2ccccc12)NC(=O)[C@H](CCCCN)NC(=O)[C@H](CCCN=C(N)N)NC(=O)[C@H](Cc1c[nH]c2ccccc12)NC(=O)[C@@H](NC(=O)CNC(=O)[C@@H](NC(=O)[C@H](Cc1c[nH]c2ccccc12)NC(=O)[C@H](CCCN=C(N)N)NC(=O)[C@H](CCCCN)NC(=O)[C@H](Cc1c[nH]c2ccccc12)NC(=O)[C@@H](N)CC(C)C)C(C)C)C(C)C)C(N)=O` [LWKRWVGVWRKWL], for which the MIC in the assay with Bacillus subtilis 168 amounted to 0.6 µM (≈ 1.09 µg/mL); in assay [20], 10 µM (≈ 18.1 µg/mL); in assay [21], 20 µM (≈ 36.2 µg/mL); in assay [22], 20 µM (≈ 36.2 µg/mL); in assay [23], 5 µM (≈ 9.06 µg/mL); in [24], 7 µM (≈ 12.7 µg/mL).
With `NC(=O)[C@H](CCCN=C(N)N)NC(=O)[C@H](CCCN=C(N)N)NC(=O)[C@H](Cc1c[nH]c2ccccc12)NC(=O)[C@H](Cc1c[nH]c2ccccc12)NC(=O)[C@H](CCCN=C(N)N)NC(=O)[C@H](Cc1c[nH]c2ccccc12)NC(=O)[C@H](Cc1c[nH]c2ccccc12)NC(=O)[C@H](CCCN=C(N)N)NC(=O)[C@H](Cc1c[nH]c2ccccc12)NC(=O)[C@H](CCCN=C(N)N)NC(=O)[C@H](CCCN=C(N)N)NC(=O)[C@H](CCCN=C(N)N)NC(=O)[C@@H](N)CCCN=C(N)N` [RRRRWRWWRWWRR], the MIC is at least 114 µM in assay [25], 29.1 µM (≈ 64 µg/mL) in [26], 29.1 µM (≈ 64 µg/mL) in assay [27] and 29.1 µM (≈ 64 µg/mL) in [28].
`NC(=O)[C@H](CCCN=C(N)N)NC(=O)[C@H](CS)NC(=O)[C@H](Cc1ccc(O)cc1)NC(=O)[C@H](Cc1c[nH]c2ccccc12)NC(=O)[C@H](CCCN=C(N)N)NC(=O)[C@@H](N)Cc1c[nH]c2ccccc12` [WRWYCR]: the MIC in assay [29] is at least 132 µM; in assay [30] it was 8 µM (≈ 7.75 µg/mL); in assay [26] it was 17 µM (≈ 16.5 µg/mL); in [31], 66 µM (≈ 63.9 µg/mL); in assay [7] it was 33 µM (≈ 31.9 µg/mL); in assay [32], 8 µM (≈ 7.75 µg/mL). Further, in [33], the MIC amounted to 66 µM (≈ 63.9 µg/mL).
